Source: publication PMC8413904 (Pharmacology Research & Perspectives, 2021)

Columns and labels:
GluN1/2B [1] = target: T1, GluN1/2B (Rattus norvegicus, UniProt P35439+Q00960); test: TEVC electrophysiology dose–response in xenopus oocytes; type: cell-based; parameters: SEP (super-ecliptic pHluorin); host or cells: Xenopus oocytes (cRNA injection); settings: 100 µM CNS4; 0.3 µM glutamate + 100 µM glycine; −60 mV; average ± SEM
Description: (§4) NMDAR constructs: cDNA encoding the NMDAR1a subunit (GluN1a) was obtained from Dr. Nakanishi. cDNA encoding the GluN2B (pci_sepGluN2B) was developed initially in the Malinow lab[36] and purchased from Addgene (cat# 23998). cDNA encoding the GluN2C and GluN2D were purchased from GenScript. Mutated GluN1, 2A and 2B cDNA constructs capable of assembling as GluN1/2A/2B triheteromeric (1/2AB) receptors[37] were obtained from Dr. Paoletti (Laboratoire de Neurobiologie, CNRS). […] Plasmids were linearized with NotI (GluN1a) or Avrll (GluN2B), or BstB1 (GluN2C and GluN2D) and transcribed in vitro with T7 (GluN1a, GluN1/2A, GluN2B, GluN2C, & GluN2D) RNA polymerase using the mMessage mMachine transcription kits (Invitrogen by Thermo Fisher Scientific). […]
(§5) Electrophysiological responses were measured using a standard two‐microelectrode voltage‐clamp workstation [Warner Instruments (Hamden, Connecticut) model OC‐725C] designed to provide a fast clamp of large cells. […] Response magnitude was determined in xenopus oocytes expressing different NMDAR subunits (GluN1/2A, 1/2B, 1/2C, 1/2D, and 1/2A/2B) by the steady plateau response elicited by bath application of different agonist concentrations. […] Statistical significance was determined at the overall alpha level .05, using appropriate statistical methods as described in each figure captions.

[2] = system: cultured rat brain cerebellar neurons; test: Na^+ assay (CoroNa green‐AM); type: cell-based
Description: (§1) All animal experimental procedures and housing have been approved by the Institutional Animal Care and Use Committee (IACUC) protocol #18‐015 of Virginia Tech. Embryonic day 18 (E18) rat brain tissue samples were obtained from adult pregnant SD rats. Rat brain primary cortical, striatal, and cerebellar neurons were cultured on poly‐d‐lysine coated 96‐well plates for 14 days in vitro (DIV14) before using for the experiments. Primary rat neuron culture was performed as previously published.[44] Briefly, each well of a 96 well plate was loaded with 50 000 cells and grown in 200 µl neurobasal media supplemented with B27, glutamax, penicillin, streptomycin. One hundred microliters of media was replaced with fresh media once in 4 days. Eight to thirteen fetus were obtained from each pregnant rat. Brain tissue from these fetus were pooled to obtain the neurons. Cortical, striatal, and cerebellar neuron assays were carried out at different time points.
(§2) For Na^+ assay, DIV14 neurons were washed with HBSS and treated with freshly prepared CoroNa green‐AM dye (ThermoFisher, cat # C36676) and incubated for 45 min in 37°C. Plates were washed twice with HBSS before adding drug solutions dissolved in HBSS, and read at 492/516 nm (ex/em) using a plate reader. RFU values of background control and treatments were plotted to identify the effect of CNS4 on NMDA‐induced Na^+ flux in the neurons.

[3] = system: cultured rat brain striatal neurons; test: Na^+ assay (CoroNa green‐AM); type: cell-based; settings: 0.3 µM NMDA plus 100 µM CNS4; highest level
Description: as §1, §2

GluN1/2A = GluN1/2A (UniProt P35439+Q12879); test: Current–voltage (I–V) relationship, TEVC in xenopus oocytes
Description: (§6) GluN1A, GluN2B, GluN2C, GluN2D, and GluN1/2A/2B cRNAs were mixed in a ratio of 1:1–3. 50 nl of the final cRNA mixture was microinjected (40–70 ng total) into the oocyte cytoplasm. Oocytes were incubated in ND‐96 solution at 18^◦C prior to electrophysiological recordings (1–3 days).
(§7) After obtaining a steady‐state response to different agonist applications, agonist plus 100 μM CNS4 or agonist plus 40 μM MgCl2 plus 100 μM CNS4 was applied. […] Data points were aligned by least‐square fit by third‐order polynomial equation (Y = B0 + B1*X +B2*X ^2 + B3*X ^3), except for GluN1/2B that needed a fourth‐order polynomial equation.

GluN1/2C [4] = target: T2, GluN1/2C (UniProt P35439+Q14957); test: TEVC electrophysiology dose–response in xenopus oocytes; type: cell-based; parameters: host or cells: Xenopus oocytes (cRNA injection)
T2 sequence (Q14957 20-1233, other chains not shown): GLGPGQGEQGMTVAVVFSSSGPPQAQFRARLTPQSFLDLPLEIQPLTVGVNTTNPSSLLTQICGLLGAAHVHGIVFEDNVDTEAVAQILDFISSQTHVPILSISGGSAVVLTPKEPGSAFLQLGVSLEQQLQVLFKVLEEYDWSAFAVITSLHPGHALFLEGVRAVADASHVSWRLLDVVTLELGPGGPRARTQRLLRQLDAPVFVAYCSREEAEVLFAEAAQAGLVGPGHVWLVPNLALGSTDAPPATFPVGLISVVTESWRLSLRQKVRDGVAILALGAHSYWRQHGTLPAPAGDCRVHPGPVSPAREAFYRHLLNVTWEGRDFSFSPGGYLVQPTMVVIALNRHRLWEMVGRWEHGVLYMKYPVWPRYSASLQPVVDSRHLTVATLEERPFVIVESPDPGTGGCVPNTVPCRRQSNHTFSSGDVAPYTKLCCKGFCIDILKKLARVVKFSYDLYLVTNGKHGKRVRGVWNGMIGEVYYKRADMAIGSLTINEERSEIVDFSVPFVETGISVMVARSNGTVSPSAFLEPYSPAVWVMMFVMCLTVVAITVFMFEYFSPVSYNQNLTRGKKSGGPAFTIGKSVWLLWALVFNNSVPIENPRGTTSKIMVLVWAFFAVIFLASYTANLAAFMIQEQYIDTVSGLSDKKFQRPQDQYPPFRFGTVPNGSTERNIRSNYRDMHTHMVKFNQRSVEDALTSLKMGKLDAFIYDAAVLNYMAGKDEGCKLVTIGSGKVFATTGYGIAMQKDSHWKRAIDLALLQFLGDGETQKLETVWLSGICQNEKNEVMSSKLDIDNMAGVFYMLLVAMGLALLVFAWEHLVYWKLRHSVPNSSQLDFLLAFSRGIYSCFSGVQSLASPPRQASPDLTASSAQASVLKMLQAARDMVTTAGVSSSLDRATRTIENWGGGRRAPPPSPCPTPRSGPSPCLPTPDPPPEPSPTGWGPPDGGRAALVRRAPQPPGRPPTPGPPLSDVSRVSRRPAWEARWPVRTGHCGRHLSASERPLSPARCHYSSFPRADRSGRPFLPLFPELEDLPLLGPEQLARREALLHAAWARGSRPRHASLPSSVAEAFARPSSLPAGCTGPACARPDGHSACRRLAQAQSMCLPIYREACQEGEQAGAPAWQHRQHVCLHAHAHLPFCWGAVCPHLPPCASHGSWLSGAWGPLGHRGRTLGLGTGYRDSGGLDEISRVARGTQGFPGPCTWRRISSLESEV
Description: as §4, §5

[5] = system: cultured rat brain cerebellar neurons; test: Dynamic calcium assay (Fluo‐8); type: cell-based; settings: 100 µM CNS4 plus 300 µM NMDA; p < .01 vs 300 µM NMDA (12810)
Description: as §1
(§3) Dynamic calcium assay was carried out, using Fluo‐8 no‐wash kit (abcam, ab112129), as per the manufacturer's instructions with minor modifications to fit with experimental necessities. On DIV14, all 200 μl of media was removed and replaced it with 100 μl of HBSS and 100 μl of Fluo‐8 dye loading solution. The plates were incubated at 37°C for 30 min and at room temperature for 30 min. A volume of 100 µL of test chemicals (3× of desired final concentration) was added to the plates immediately before running the calcium flux assay and read the fluorescence intensity at 490/525 nm (ex/em) using Synergy microplate reader, BioTek, VT. Costar 96‐well clear bottom black side plates were read from the bottom, nine times, with 60 s intervals between each read. Temperature was set at 37°C and reading speed was 100 ms.

[6] = system: cultured rat brain striatal neurons; test: Dynamic calcium assay (Fluo‐8); type: cell-based
Description: as §1, §3

GluN1/2D [7] = target: T3, GluN1/2D (UniProt O15399+P35439); test: TEVC electrophysiology dose–response in xenopus oocytes; type: cell-based; parameters: host or cells: Xenopus oocytes (cRNA injection)
T3 sequence (O15399 28-1336, other chains not shown): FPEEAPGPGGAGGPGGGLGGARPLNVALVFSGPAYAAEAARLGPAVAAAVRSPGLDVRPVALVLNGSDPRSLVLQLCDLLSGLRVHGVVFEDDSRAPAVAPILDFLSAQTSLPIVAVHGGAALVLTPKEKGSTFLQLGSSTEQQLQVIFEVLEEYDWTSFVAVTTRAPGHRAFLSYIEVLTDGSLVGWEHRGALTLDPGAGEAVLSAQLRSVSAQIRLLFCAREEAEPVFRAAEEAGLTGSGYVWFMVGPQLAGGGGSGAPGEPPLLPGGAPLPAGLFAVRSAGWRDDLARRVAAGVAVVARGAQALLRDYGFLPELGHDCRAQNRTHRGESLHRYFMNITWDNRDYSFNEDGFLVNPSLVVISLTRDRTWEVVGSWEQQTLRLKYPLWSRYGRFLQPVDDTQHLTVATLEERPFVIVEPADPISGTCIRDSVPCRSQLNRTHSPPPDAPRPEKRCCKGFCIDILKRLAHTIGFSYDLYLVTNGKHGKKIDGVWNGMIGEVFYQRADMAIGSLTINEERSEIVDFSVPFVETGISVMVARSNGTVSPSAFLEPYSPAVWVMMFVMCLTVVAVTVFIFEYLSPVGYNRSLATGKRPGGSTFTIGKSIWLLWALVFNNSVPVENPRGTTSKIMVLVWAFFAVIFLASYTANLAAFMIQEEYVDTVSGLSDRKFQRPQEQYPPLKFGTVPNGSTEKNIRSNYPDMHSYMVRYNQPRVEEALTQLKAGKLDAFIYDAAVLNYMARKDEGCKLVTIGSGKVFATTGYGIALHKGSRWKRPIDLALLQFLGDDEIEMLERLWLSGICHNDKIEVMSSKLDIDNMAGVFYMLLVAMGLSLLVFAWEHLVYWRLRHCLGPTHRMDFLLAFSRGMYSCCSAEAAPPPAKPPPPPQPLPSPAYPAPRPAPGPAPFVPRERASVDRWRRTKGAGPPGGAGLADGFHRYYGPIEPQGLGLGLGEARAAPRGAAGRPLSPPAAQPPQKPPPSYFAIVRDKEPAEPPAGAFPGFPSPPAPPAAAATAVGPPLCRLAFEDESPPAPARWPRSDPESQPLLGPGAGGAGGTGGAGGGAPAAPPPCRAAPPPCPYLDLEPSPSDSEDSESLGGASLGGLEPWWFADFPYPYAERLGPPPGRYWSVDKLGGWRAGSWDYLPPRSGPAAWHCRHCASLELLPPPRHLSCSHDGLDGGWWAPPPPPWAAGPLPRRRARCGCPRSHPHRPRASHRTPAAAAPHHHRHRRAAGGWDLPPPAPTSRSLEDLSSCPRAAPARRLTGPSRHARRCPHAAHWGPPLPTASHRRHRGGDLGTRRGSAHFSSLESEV
Description: NMDAR constructs: cDNA encoding the NMDAR1a subunit (GluN1a) was obtained from Dr. Nakanishi. cDNA encoding the GluN2B (pci_sepGluN2B) was developed initially in the Malinow lab[36] and purchased from Addgene (cat# 23998). cDNA encoding the GluN2C and GluN2D were purchased from GenScript. Mutated GluN1, 2A and 2B cDNA constructs capable of assembling as GluN1/2A/2B triheteromeric (1/2AB) receptors[37] were obtained from Dr. Paoletti (Laboratoire de Neurobiologie, CNRS). […] Plasmids were linearized with NotI (GluN1a) or Avrll (GluN2B), or BstB1 (GluN2C and GluN2D) and transcribed in vitro with T7 (GluN1a, GluN1/2A, GluN2B, GluN2C, & GluN2D) RNA polymerase using the mMessage mMachine transcription kits (Invitrogen by Thermo Fisher Scientific).
Stage IV frog oocytes were obtained from Xenopus‐I. NMDAR subunit cRNAs were suspended in nuclease‐free sterile water. GluN1A, GluN2B, GluN2C, GluN2D, and GluN1/2A/2B cRNAs were mixed in a ratio of 1:1–3. 50 nl of the final cRNA mixture was microinjected (40–70 ng total) into the oocyte cytoplasm. Oocytes were incubated in ND‐96 solution at 18^◦C prior to electrophysiological recordings (1–3 days).
Electrophysiological responses were measured using a standard two‐microelectrode voltage‐clamp workstation [Warner Instruments (Hamden, Connecticut) model OC‐725C] designed to provide a fast clamp of large cells. The recording buffer contained 116 mM NaCl, 2 mM KCl, 0.3 mM BaCl2, and 5 mM HEPES, pH 7.4. Response magnitude was determined in xenopus oocytes expressing different NMDAR subunits (GluN1/2A, 1/2B, 1/2C, 1/2D, and 1/2A/2B) by the steady plateau response elicited by bath application of different agonist concentrations. […] Response amplitudes for functional NMDARs were generally between 0.1 and 2 μA. […] Dose–response relationships were fit to an appropriate curve‐fitting equation using GraphPad Prism‐7. Nonlinear regression was used to calculate EC50 and/or percentage maximal response. […] Statistical significance was determined at the overall alpha level .05, using appropriate statistical methods as described in each figure captions.

GluN1/2B [8] = target: T1, GluN1/2B; test: Current–voltage (I–V) relationship, TEVC in xenopus oocytes
Description: as §6, §7

GluN1/2C [9] = target: T2, GluN1/2C; test: as above
Description: as §6, §7

GluN1/2D [10] = target: T3, GluN1/2D; test: as above
Description: as §6, §7

[11] = system: cultured rat brain cortical neurons; test: Na^+ assay (CoroNa green‐AM); type: cell-based
Description: as §1
For Na^+ assay, DIV14 neurons were washed with HBSS and treated with freshly prepared CoroNa green‐AM dye (ThermoFisher, cat # C36676) and incubated for 45 min in 37°C. […] RFU values of background control and treatments were plotted to identify the effect of CNS4 on NMDA‐induced Na^+ flux in the neurons.

[12] = 100 µM CNS4, 100 µM glutamate + 100 µM glycine, −90 to +30 mv
[13] = 100 µM CNS4, 0.3 µM glutamate + 100 µM glycine, −60 mV, average ± SEM
[14] = higher concentration (100 & 300 µM) of glutamate, almost no effect

T1 sequence (Q00960 27-1482, other chains not shown): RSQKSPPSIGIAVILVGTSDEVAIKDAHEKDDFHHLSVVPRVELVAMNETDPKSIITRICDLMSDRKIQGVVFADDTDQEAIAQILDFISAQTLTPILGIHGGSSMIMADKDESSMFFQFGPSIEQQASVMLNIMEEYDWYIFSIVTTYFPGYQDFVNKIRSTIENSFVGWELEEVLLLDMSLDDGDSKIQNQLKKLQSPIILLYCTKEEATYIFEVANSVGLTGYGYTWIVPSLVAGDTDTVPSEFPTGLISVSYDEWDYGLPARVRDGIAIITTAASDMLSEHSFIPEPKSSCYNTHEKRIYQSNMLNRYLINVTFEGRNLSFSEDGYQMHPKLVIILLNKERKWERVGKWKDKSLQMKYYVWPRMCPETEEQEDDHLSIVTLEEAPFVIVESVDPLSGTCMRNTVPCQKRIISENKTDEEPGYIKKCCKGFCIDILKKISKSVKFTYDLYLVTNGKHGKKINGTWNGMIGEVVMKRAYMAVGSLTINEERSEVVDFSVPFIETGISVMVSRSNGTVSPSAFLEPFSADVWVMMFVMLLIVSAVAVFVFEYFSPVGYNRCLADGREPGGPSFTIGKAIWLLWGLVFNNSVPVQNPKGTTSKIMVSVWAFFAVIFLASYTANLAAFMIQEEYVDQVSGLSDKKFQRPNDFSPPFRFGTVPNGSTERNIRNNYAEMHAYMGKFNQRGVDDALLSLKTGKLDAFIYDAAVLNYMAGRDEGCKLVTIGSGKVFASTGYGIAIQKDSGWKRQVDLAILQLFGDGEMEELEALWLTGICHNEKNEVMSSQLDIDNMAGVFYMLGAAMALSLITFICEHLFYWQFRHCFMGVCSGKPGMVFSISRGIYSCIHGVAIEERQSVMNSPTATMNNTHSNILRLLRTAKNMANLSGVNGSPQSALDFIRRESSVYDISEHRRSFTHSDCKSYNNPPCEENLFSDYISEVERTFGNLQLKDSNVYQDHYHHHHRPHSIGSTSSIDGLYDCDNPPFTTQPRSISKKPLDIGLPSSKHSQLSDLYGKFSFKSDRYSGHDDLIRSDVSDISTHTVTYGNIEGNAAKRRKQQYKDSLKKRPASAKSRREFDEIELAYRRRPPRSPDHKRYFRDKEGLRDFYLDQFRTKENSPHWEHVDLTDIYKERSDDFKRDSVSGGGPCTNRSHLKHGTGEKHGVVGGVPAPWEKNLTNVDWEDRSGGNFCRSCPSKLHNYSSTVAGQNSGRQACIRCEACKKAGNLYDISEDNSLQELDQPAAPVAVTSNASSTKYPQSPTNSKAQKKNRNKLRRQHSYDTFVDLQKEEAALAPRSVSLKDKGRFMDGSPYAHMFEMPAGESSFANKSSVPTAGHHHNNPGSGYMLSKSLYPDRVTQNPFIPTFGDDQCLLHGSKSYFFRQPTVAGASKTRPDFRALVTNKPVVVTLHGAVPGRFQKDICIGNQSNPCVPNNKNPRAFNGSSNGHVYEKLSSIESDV

O=C(NC(=S)N1CCCCC1c1cccnc1)c1ccc(F)cc1 (stereo not drawn) [CNS4, 4‐fluoro‐N‐(2‐(pyridin‐3‐yl)piperidine‐1‐carbonothioyl)benzamide]
current response, agonist alone induced maximum current normalized to 100% (GluN1/2B [1]): 193.22% ± 21.2%
Na^+ signal ([2]; 0.3 µM NMDA plus 100 µM CNS4, highest level): 420668 rfu
Na^+ signal ([2]; 100 µM CNS4 alone, Figure 7C): significantly increased
Na^+ signal [3]: 426039 rfu
voltage dependence of effect on current amplitude (GluN1/2A; [12]): no voltage dependence effect
reversal potential (GluN1/2A; agonist (100 µM glutamate + 100 µM glycine) + 40 µM MgCl2 + 100 µM CNS4, without CNS4 −20.06 ± 2.6, p > .05): −17.57 ± 2.0 mv
reversal potential (GluN1/2A; agonist (100 µM glutamate + 100 µM glycine) + 100 µM CNS4, absence of Mg^2+, agonist alone −17.42 ± 2.2, p > .05): −17.54 ± 1.8 mv
current response, agonist alone induced maximum current normalized to 100% (GluN1/2C [4]; [13]): 506.34% ± 52.9%
potentiation of receptor current (GluN1/2C [4]; [14]): < 20%
Ca^2+ signal, rfu [5]: 14423 rfu
Ca^2+ signal, mean rfu ([6]; 100 µM CNS4 in vehicle, no NMDA, background control 13964, p < .0001): 6317 rfu
CNS4 induced potentiation of Ca^2+ signal vs 300 µM NMDA ([6]; 100 µM CNS4 plus 300 µM NMDA): 86%
Ca^2+ signal, mean rfu ([6]; 100 µM CNS4 plus 300 µM NMDA, p < .0001 vs 300 µM NMDA alone (20964)): 39001 rfu
current response, agonist alone induced maximum current normalized to 100% (GluN1/2D [7]; [13]): 850.35% ± 133.9%
potentiation of receptor current (GluN1/2D [7]; [14]): < 20%
voltage dependence of effect on current amplitude (GluN1/2B [8]; [12]): no voltage dependence effect
reversal potential (GluN1/2B [8]; agonist (100 µM glutamate + 100 µM glycine) + 40 µM MgCl2 + 100 µM CNS4, without CNS4 −11.66 ± 1.25, p > .05): −6.9 ± 0.74 mv
reversal potential (GluN1/2B [8]; agonist (100 µM glutamate + 100 µM glycine) + 100 µM CNS4, absence of Mg^2+, agonist alone −11.66 ± 1.55, p > .05): −10.89 ± 1.9 mv
inward current reversal potential (GluN1/2C [9]; 0.3 µM glutamate + 100 µM glycine + CNS4, absence of Mg2+, without CNS4 -86.44± 0.74, p<0.0001, n=7): -75.15±1.33 mv
inward current reversal potential (GluN1/2C [9]; 0.3 µM glutamate + 100 µM glycine + CNS4, presence of Mg2+, without CNS4 -88.59± 0.30, p<0.001, n=7): -79.25±1.87 mv
voltage dependence of effect on current amplitude (GluN1/2C [9]; [12]): no voltage dependence effect
reversal potential (GluN1/2C [9]; agonist (100 µM glutamate + 100 µM glycine) + 40 µM MgCl2 + 100 µM CNS4, without CNS4 −81.75 ± 1.37, p < .01): −75.53 ± 0.59 mv
reversal potential (GluN1/2C [9]; agonist (100 µM glutamate + 100 µM glycine) + 100 µM CNS4, absence of Mg^2+, agonist alone −69.55 ± 1.51, p < .01): −63.64 ± 0.80 mv
inward current reversal potential (GluN1/2D [10]; 0.3 µM glutamate + 100 µM glycine + CNS4, absence of Mg2+, without CNS4 -84.35± 0.42, p<0.0001, n=6): -72.52±0.85 mv
inward current reversal potential (GluN1/2D [10]; 0.3 µM glutamate + 100 µM glycine + CNS4, presence of Mg2+, without CNS4 -88.29± 0.35, p<0.0001, n=6): -77.88±0.87 mv
voltage dependence of effect on current amplitude (GluN1/2D [10]; [12]): no voltage dependence effect
reversal potential (GluN1/2D [10]; agonist (100 µM glutamate + 100 µM glycine) + 40 µM MgCl2 + 100 µM CNS4, without CNS4 −75.8 ± 5.51, p > .05): −72.58 ± 3.08 mv
reversal potential (GluN1/2D [10]; agonist (100 µM glutamate + 100 µM glycine) + 100 µM CNS4, absence of Mg^2+, agonist alone −54.2 ± 4.5, p > .05): −56.05 ± 5.8 mv
Na^+ signal, mean rfu ([11]; 100 µM CNS4 + 0.3 µM NMDA, p < .0001 vs CNS4 with no NMDA (412544)): 391591 rfu
Na^+ signal compared to 300 µM NMDA alone ([11]; 100 µM CNS4 + 30–300 µM NMDA): significantly higher Na^+ signal
Na^+ signal, mean rfu ([11]; 100 µM CNS4 + glutamate + MK801, p = .0024 vs glutamate + MK801 ([…])): 519331 rfu
Na^+ signal, mean rfu ([11]; 100 µM CNS4 alone, Figure 8B): 538755 rfu
Na^+ signal, mean rfu ([11]; 100 µM CNS4 with no NMDA, Figure 7A): 412544 rfu
